Reference: ChEMBL document CHEMBL4041487, “Drug Affinity Responsive Target Stability (DARTS) Identifies Laurifolioside as a New Clathrin Heavy Chain Modulator” (J Nat Prod, 2016)
Calls of active or inactive are those of the source. No cut-off for these calls is given here.

Columns and labels:
[1] = tested on: PC-3; experiment: Antiproliferative activity against human PC3 cells measured after 24 hrs by MTT assay; format: functional, cell-based; settings: PC-3, 24 h
[2] = tested on: MCF7; experiment: Antiproliferative activity against human MCF7 cells measured after 24 hrs by MTT assay; format: functional, cell-based; settings: MCF7, 24 h
[3] = molecular target: Clathrin heavy chain 1 (Homo sapiens) (UniProt Q00610); experiment: Binding affinity to clathrin heavy chain 1 in human PC3 cells at 20 to 40 uM measured after 2 hrs by DARTS assay; format: cell-based
[4] = molecular target: Clathrin heavy chain 1 (Homo sapiens) (UniProt Q00610); experiment: Binding affinity to clathrin heavy chain 1 in human MCF7 cells at 20 to 40 uM measured after 2 hrs by DARTS assay; format: cell-based
[5] = molecular target: Clathrin heavy chain 1 (Homo sapiens) (UniProt Q00610); experiment: Modulation of clathrin heavy chain 1 in human PC3 cells assessed as effect on transferrin endocytosis at 5 to 25 uM pretreated for 15 mins followed by trasnferrin conjugate addition measured after 15 mins by laser scanning confocal microscopic analysis; format: cell-based
[6] = molecular target: Clathrin heavy chain 1 (Homo sapiens) (UniProt Q00610); experiment: Inhibition of clathrin heavy chain 1 in human PC3 cells assessed as suppression of transferrin internalization at 30 uM pretreated for 15 mins followed by trasnferrin conjugate addition measured after 15 mins by laser scanning confocal microscopic analysis; format: cell-based

Clathrin heavy chain 1 (Homo sapiens), sequence (Q00610 whole entry): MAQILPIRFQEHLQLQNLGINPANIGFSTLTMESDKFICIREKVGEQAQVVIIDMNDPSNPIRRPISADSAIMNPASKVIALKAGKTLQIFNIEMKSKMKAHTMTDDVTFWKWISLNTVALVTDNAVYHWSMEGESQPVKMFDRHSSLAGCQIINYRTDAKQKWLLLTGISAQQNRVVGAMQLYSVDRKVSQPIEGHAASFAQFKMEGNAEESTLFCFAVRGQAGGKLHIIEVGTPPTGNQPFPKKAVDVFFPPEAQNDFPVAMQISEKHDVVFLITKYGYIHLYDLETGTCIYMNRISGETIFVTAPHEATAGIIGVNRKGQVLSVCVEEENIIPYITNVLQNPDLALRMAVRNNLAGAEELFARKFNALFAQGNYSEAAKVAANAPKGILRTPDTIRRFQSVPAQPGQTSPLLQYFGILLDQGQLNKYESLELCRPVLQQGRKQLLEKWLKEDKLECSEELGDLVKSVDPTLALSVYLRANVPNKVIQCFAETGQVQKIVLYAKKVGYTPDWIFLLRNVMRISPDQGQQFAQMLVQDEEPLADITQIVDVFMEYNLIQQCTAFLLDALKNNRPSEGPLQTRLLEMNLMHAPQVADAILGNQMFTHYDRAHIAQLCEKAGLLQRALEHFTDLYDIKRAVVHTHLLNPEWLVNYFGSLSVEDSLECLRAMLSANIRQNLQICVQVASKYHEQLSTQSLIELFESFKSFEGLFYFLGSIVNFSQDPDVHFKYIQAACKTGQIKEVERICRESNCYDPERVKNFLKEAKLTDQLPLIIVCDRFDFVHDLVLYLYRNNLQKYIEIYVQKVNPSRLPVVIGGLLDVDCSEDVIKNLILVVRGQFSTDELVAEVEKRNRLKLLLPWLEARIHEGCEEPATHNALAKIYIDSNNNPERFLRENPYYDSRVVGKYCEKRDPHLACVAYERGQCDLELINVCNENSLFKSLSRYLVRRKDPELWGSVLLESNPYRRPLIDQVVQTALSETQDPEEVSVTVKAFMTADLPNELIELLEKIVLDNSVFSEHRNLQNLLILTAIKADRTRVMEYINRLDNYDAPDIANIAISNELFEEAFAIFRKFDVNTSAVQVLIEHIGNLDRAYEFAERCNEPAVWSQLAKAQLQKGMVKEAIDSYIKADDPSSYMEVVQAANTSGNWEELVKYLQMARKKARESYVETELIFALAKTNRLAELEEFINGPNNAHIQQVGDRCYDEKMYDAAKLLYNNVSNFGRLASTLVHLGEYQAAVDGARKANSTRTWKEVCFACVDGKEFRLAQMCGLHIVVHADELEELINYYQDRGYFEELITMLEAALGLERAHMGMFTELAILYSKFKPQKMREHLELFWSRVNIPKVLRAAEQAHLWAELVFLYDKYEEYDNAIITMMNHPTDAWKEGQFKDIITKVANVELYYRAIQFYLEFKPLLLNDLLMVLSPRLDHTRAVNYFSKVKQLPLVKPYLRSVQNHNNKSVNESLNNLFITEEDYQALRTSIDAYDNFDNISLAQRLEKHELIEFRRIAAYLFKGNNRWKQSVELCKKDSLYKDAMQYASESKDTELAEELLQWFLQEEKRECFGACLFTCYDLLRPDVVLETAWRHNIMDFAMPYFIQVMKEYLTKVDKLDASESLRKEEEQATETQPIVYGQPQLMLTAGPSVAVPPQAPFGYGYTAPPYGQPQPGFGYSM

SMILES: C/C1=C/C2=C(C(=O)[C@H](C)C2)C(=O)[C@@H](C)C[C@@H]2[C@H](CC1)[C@@]2(C)CO[C@@H]1O[C@H](CO)[C@@H](O)[C@H](O)[C@H]1O
- IC50 [1]: 25 µM
- IC50 [2]: 32 µM
- Activity [3]: Active
- Activity [4]: Active
- Activity [5]: Active

SMILES: O=C1N=C(NS(=O)(=O)c2cccc3ccccc23)S/C1=C/c1ccc(Br)cc1
- inhibition [6]: Active
